Consider 35 molecules from US5252598A, “Labdane derivatives, a process for their preparation, and their use as medicaments” (Hoechst Aktiengesellschaft, priority 1987, dated 1993).

Values after ≈ are worked out from the molar mass of the structure shown. Structures can show the parent of a compound that is named as a salt.

One assay concerns conscious rabbits. Briefly: Reduction in intraocular pressure in conscious rabbits. The following applies: rabbit, instilled into one eye, dose percentage 0.25. Format: in vivo. On the procedure:
For this experiment rabbits of both sexes and weighing 2 to 3 kg are used. The intraocular pressure (IOP) is measured with a Schioetz tonometer after corneal anesthesia with 2% strength novocaine solution. […] […] The IOP is measured at defined time intervals, i.e. after 0.5, 1, 2, 3, 4 and 5 hours. The percentage reduction in the IOP is calculated using the baseline value.
As to `C=C[C@@]1(C)CC(=O)[C@@]2(O)[C@](C)(O1)[C@@H](OC(=O)[C@H](O)CO)C=C1C(C)(C)CC[C@H](O)[C@@]12C` [drawing 101], the “% decrease in IOD” value is recorded as 35.0% and the “Duration (decrease in IOD)” value was above 360 min.

The same assay, now with this note: rabbit, instilled into one eye, dose percentage 1.00.
`C=C[C@@]1(C)CC(=O)[C@@]2(O)[C@](C)(O1)[C@@H](OC(=O)N1CCCC1)C=C1C(C)(C)CC[C@H](O)[C@@]12C`: the “% decrease in IOD” value is 26.0% and the “Duration (decrease in IOD)” value was 240 min.
`C=C[C@@]1(C)CC(=O)[C@@]2(O)[C@](C)(O1)[C@@H](OC(N)=O)C=C1C(C)(C)CC[C@H](O)[C@@]12C` [CONH2, 7β-Amino-carbonyloxy-1α,9α-dihydroxy-8,13-epoxy-labd-5,14-dien-11-one]: the “% decrease in IOD” value came out at 30.0% and the “Duration (decrease in IOD)” value was above 360 min.
For `C=C[C@@]1(C)CC(=O)[C@@]2(O)[C@](C)(O1)[C@@H](OC(=O)NCCCC)C=C1C(C)(C)CC[C@H](O)[C@@]12C` [CONH(CH2)3 CH3], the “% decrease in IOD” value is 27.0% and the “Duration (decrease in IOD)” value was above 360 min.
Taken in the same sequence, the figures for `C=C[C@@]1(C)CC(=O)[C@@]2(O)[C@](C)(O1)[C@@H](OC(=O)NC)C=C1C(C)(C)CC[C@H](O)[C@@]12C` [CONHCH3] were 24.0% and above 360 min.

The assay is the same for the next values; noted with them: rabbit, instilled into one eye, dose percentage 2.00.
Consider `C=C[C@@]1(C)CC(=O)[C@@]2(O)[C@](C)(O1)[C@@H](OC(=O)CN1CCOCC1)C=C1C(C)(C)CC[C@H](O)[C@@]12C`, for which the “% decrease in IOD” value came out at 20.3% and the “Duration (decrease in IOD)” value turned out to be 360 min.
On the same counts, the results for `C=C[C@@]1(C)CC(=O)[C@@]2(O)[C@](C)(O1)[C@@H](OC(=O)CN1CCN(C)CC1)C=C1C(C)(C)CC[C@H](O)[C@@]12C` [drawing 104] are 23.9% and 360 min.

In the next assay the test system is Guinea pig atrium. The assay can be described thus: Positive inotropic activity (contractility of isolated guinea pig atrium). Format: cell-based. The note with it: Cavia porcellus, isolated left and right atria, Ringer's solution, 32° C., contractility recorded 7 to 10 minutes. On the procedure:
Guineapigs of both sexes and weighing 400 g were sacrificed, and the heart was removed and placed in Ringer's solution at room temperature. Both the left and the right atria were then isolated and fixed in an organ holder, and the preparation was placed in an organ bath containing Ringer's solution and maintained at a temperature of 32° C. Carbogen (95% O2 and 5% CO2) was then bubbled through the organ bath. The compound to be tested is dissolved directly in water together with a stoichiometric amount of 0.1N HCL or a salt thereof to give a solution of known concentration and the latter is added to the bath. The contractility of the atrium is recorded for 7 to 10 minutes on a Nihon Kohden 4-channel pen recorder with an isometric strain gage. The activity is expressed on the basis of the resulting data as the EC50.
For `C=C[C@@]1(C)CC(=O)[C@@]2(O)[C@](C)(O1)[C@@H](OC(=O)N1CCN(C)CC1)C=C1C(C)(C)CC[C@H](O)[C@@]12C`, the midpoint of the response, the EC50, lay at 0.24 µg/mL (≈ 0.504 µM).
Consider `C=C[C@@]1(C)CC(=O)[C@@]2(O)[C@](C)(O1)[C@@H](OC(=O)CN1CC(C)OC(C)C1)C=C1C(C)(C)CC[C@H](O)[C@@]12C` (some centres unmarked), for which a half-maximal effect (EC50) was put at 0.079 µg/mL (≈ 0.156 µM).
Still for that read-out and setting: for `C=C[C@@]1(C)CC(=O)[C@@]2(O)[C@](C)(O1)[C@@H](OC(=O)CCN1CCCCC1)C=C1C(C)(C)CC[C@H](O)[C@@]12C` the value was 0.28 µg/mL (≈ 0.572 µM).
`C=C[C@@]1(C)CC(=O)[C@@]2(O)[C@](C)(O1)[C@@H](OC(=O)CCN1CCN(C)CC1)C=C1C(C)(C)CC[C@H](O)[C@@]12C` displayed an EC50 of 0.3 µg/mL (≈ 0.594 µM).
On the same count and under the same terms, for `C=C[C@@]1(C)CC(=O)[C@@]2(O)[C@](C)(O1)[C@@H](OC(=O)CCCN1CCN(C)CC1)C=C1C(C)(C)CC[C@H](O)[C@@]12C` the value was 0.12 µg/mL (≈ 0.231 µM); for `C=C[C@@]1(C)CC(=O)[C@@]2(O)[C@](C)(O1)[C@@H](OC(=O)CCCCN1CCOCC1)C=C1C(C)(C)CC[C@H](O)[C@@]12C`, 0.17 µg/mL (≈ 0.327 µM); for `C=C[C@@]1(C)CC(=O)[C@@]2(O)[C@](C)(O1)[C@@H](OC(=O)CN1CCSCC1)C=C1C(C)(C)CC[C@H](O)[C@@]12C`, 0.14 µg/mL (≈ 0.284 µM).
Still for that read-out and setting: for `C=C[C@@]1(C)CC(=O)[C@@]2(O)[C@](C)(O1)[C@@H](OC(=O)CN1CCC(O)(c3ccccc3)CC1)C=C1C(C)(C)CC[C@H](O)[C@@]12C` the value was 0.3 µg/mL (≈ 0.528 µM); for `C=C[C@@]1(C)CC(=O)[C@@]2(O)[C@](C)(O1)[C@@H](OC(=O)COC(=O)CN1CCCCC1)C=C1C(C)(C)CC[C@H](O)[C@@]12C`, 3 µg/mL (≈ 5.62 µM); for `C=C[C@@]1(C)CC(=O)[C@@]2(O)[C@](C)(O1)[C@@H](OC(=O)COC(=O)CN1CCOCC1)C=C1C(C)(C)CC[C@H](O)[C@@]12C`, 1 µg/mL (≈ 1.87 µM).
Still for that read-out and setting: as for `C=C[C@@]1(C)CC(=O)[C@@]2(O)[C@](C)(O1)[C@@H](OC(=O)COC(=O)CN1CC(C)OC(C)C1)C=C1C(C)(C)CC[C@H](O)[C@@]12C` (some centres unmarked), the figure is 0.72 µg/mL (≈ 1.28 µM).
`C=C[C@@]1(C)CC(=O)[C@@]2(O)[C@](C)(O1)[C@@H](OC(=O)COC(=O)CN1CCN(C)CC1)C=C1C(C)(C)CC[C@H](O)[C@@]12C` yielded an EC50 of 0.44 µg/mL (≈ 0.802 µM).
For `C=C[C@@]1(C)CC(=O)[C@@]2(O)[C@](C)(O1)[C@@H](OC(=O)COC(=O)CCN1CCN(C)CC1)C=C1C(C)(C)CC[C@H](O)[C@@]12C`, the EC50 worked out at 1 µg/mL (≈ 1.78 µM).
The molecule `C=C[C@@]1(C)CC(=O)[C@@]2(O)[C@](C)(O1)[C@@H](OC(=O)CCCN(C)C)C=C1C(C)(C)CC[C@H](O)[C@@]12C` [CO(CH2)3 N(CH3)2, 1α,9α-Dihydroxy-7β-(4-N,N-dimethylaminobutyryloxy)8,13-epoxylabda-5,14-dien-11-one] displayed an EC50 of 0.058 µg/mL (≈ 0.125 µM).
On the same count and under the same terms, as for `C=C[C@@]1(C)CC(=O)[C@@]2(O)[C@](C)(O1)[C@@H](OC(=O)CCCN(CC)CC)C=C1C(C)(C)CC[C@H](O)[C@@]12C` [CO(CH2)3 NEt2, 1α,9α-Dihydroxy-7β-(4-diethylaminobutyryloxy)-8,13-epoxylabda-5,14-dien-11-one], the figure is 0.037 µg/mL (≈ 0.0753 µM).
Molecule `C=C[C@@]1(C)CC(=O)[C@@]2(O)[C@](C)(O1)[C@@H](OC(=O)CCCCN(C)C)C=C1C(C)(C)CC[C@H](O)[C@@]12C` [CO(CH2)4 NMe2, 1α,9α-Dihydroxy-7β-(5-dimethylaminovaleryloxy)-8,13-epoxylabda-5,14-dien-11-one] came in with an EC50 of 0.755 µg/mL (≈ 1.58 µM).
`C=C[C@@]1(C)CC(=O)[C@@]2(O)[C@](C)(O1)[C@@H](OC(=O)CN(CC)CC)C=C1C(C)(C)CC[C@H](O)[C@@]12C` [COCH2 N(C2 H5)2, 7β-Diethylaminoacetoxy-1α,9α-dihydroxy-8,13-epoxy-labd-5,14-dien-11-one hydrochloride] returned an EC50 of 0.72 µg/mL. The EC50 values of the last two molecules are within 1.5-fold of each other.
On the same count and under the same terms, as for `C=C[C@@]1(C)CC(=O)[C@@]2(O)[C@](C)(O1)[C@@H](OC(=O)COC=O)C=C1C(C)(C)CC[C@H](O)[C@@]12C` [COCH2 OCHO, 1α,9α-dihydroxy-8,13-epoxy-7β-formyloxyacetoxylabda-5,14-dien-11-one], the figure is 0.024 µg/mL (≈ 0.055 µM).
Same read-out and setting: as for `C=C[C@@]1(C)CC(=O)[C@@]2(O)[C@](C)(O1)[C@@H](OC(=O)COC(=O)CN(CC)CC)C=C1C(C)(C)CC[C@H](O)[C@@]12C` [COCH2 OCOCH2 NEt2, hydrochloride hydrate], the figure is 0.018 µg/mL.
Same read-out and setting: for `C=C[C@@]1(C)CC(=O)[C@@]2(O)[C@](C)(O1)[C@@H](OC(=O)COC(=O)CN(C)C)C=C1C(C)(C)CC[C@H](O)[C@@]12C` [COCH2 OCOCH2 NMe2, 1α,9α-Dihydroxy-7β-(N,N-dimethylaminoacetoxy)acetoxy-8,13-epoxy-labd-5,14-dien-11-one hydrochloride] the value was 0.8 µg/mL; for `C=C[C@@]1(C)CC(=O)[C@@]2(O)[C@](C)(O1)[C@@H](OC(C)=O)C=C1C(C)(C)CC[C@H](O)[C@@]12C` [COCH3], 0.028 µg/mL (≈ 0.0713 µM).
Regarding `C=C[C@@]1(C)CC(=O)[C@@]2(O)[C@](C)(O1)[C@@H](OC(=O)NC)C=C1C(C)(C)CC[C@H](O)[C@@]12C` [CONHCH3], the EC50 is 0.051 µg/mL (≈ 0.125 µM).
Still for that read-out and setting: for `C=C[C@@]1(C)CC(=O)[C@@]2(O)[C@](C)(O1)[C@@H](OC(=O)[C@H](O)CO)C=C1C(C)(C)CC[C@H](O)[C@@]12C` [drawing 82] the value was 0.0008 µg/mL (≈ 0.00182 µM); for `C=C[C@@]1(C)CC(=O)[C@@]2(O)[C@](C)(O1)[C@@H](OC(=O)N1CCOCC1)C=C1C(C)(C)CC[C@H](O)[C@@]12C` [drawing 83], 0.3 µg/mL (≈ 0.647 µM).
On to `C=C[C@@]1(C)CC(=O)[C@@]2(O)[C@](C)(O1)[C@@H](OC(=O)CN1CCCCC1)C=C1C(C)(C)CC[C@H](O)[C@@]12C` [drawing 92], for which it took 0.072 µg/mL (≈ 0.151 µM) to reach a half-maximal effect (EC50).

Still in this assay, the particulars now being: isolated left and right atria, Ringer's solution, 32° C., contractility recorded 7 to 10 minutes.
In the case of `C=C[C@@]1(C)CC(=O)[C@@]2(O)[C@](C)(O1)[C@@H](OC(=O)CCCCN(C)C)C=C1C(C)(C)CC[C@H](O)[C@@]12C` [CO(CH2)4 NMe2, 1α,9α-Dihydroxy-7β-(5-dimethylaminovaleryloxy)-8,13-epoxylabda-5,14-dien-11-one], the “Guinea pig atrium EC50” value was found to be 0.615 µg/mL.

A further assay has as its system cats. Briefly: Antihypertensive effect: blood pressure in anesthetized cats. Format: in vivo. The note with it: anesthetized cat, i.v., 1 mg/kg. On the procedure: Cats of both sexes and weighing 3 to 4 kg were anesthetized with ether and maintained under chloralose anesthesia (70 mg/kg i.v.). Cannulas were placed in the femoral artery and in the femoral vein to record the blood pressure and to administer the medicament, respectively. The blood pressure in the femoral artery was recorded using a Statham P 23 Db pressure transducer on a Nihon-Kohden pen recorder for physiological purposes. The compound to be tested was dissolved, if a salt, in distilled water, otherwise in propylene glycol and administered intravenously. The fall in blood pressure and the duration of the hypotensive activity were determined.
Turning to `C=C[C@@]1(C)CC(=O)[C@@]2(O)[C@](C)(O1)[C@@H](OC(=O)CN1CCCC1)C=C1C(C)(C)CC[C@H](O)[C@@]12C`, the “Decrease in BP” value worked out at 40 mm Hg and the “Duration (hypotensive activity)” value stood at 90 min.
Consider `C=C[C@@]1(C)CC(=O)[C@@]2(O)[C@](C)(O1)[C@@H](OC(=O)CN(CC)CC)C=C1C(C)(C)CC[C@H](O)[C@@]12C` [COCH2 N(C2 H5)2, 7β-Diethylaminoacetoxy-1α,9α-dihydroxy-8,13-epoxy-labd-5,14-dien-11-one hydrochloride], for which the “Decrease in BP” value was 36 mm Hg and the “Duration (hypotensive activity)” value was above 60 min.
Taken in the same sequence, the figures for `C=C[C@@]1(C)CC(=O)[C@@]2(O)[C@](C)(O1)[C@@H](OC(=O)N1CCOCC1)C=C1C(C)(C)CC[C@H](O)[C@@]12C` [drawing 106] were 32 mm Hg and 45 min.
Taken in the same sequence, the figures for `C=C[C@@]1(C)CC(=O)[C@@]2(O)[C@](C)(O1)[C@@H](OC(=O)CN1CCCCC1)C=C1C(C)(C)CC[C@H](O)[C@@]12C` [drawing 107] were 30 mm Hg and 90 min.
On the same counts, the results for `C=C[C@@]1(C)CC(=O)[C@@]2(O)[C@](C)(O1)[C@@H](OC(=O)CN1CCN(C)CC1)C=C1C(C)(C)CC[C@H](O)[C@@]12C` [drawing 108] are 40 mm Hg and above 120 min.
